Results taken from US20220054465A1, “(PYRIDIN-2-YL)AMINE DERIVATIVES AS TGF-BETA R1 (ALK5) INHIBITORS FOR THE TREATMENT OF CANCER” (Nexys Therapeutics, Inc., priority 2018, published 2022).

Test system: HEK-Blue TGFβ cell
Assay: HEK-Blue TGFβ cellular reporter gene assay (SEAP readout)
Type: cell-based
Conditions: HEK-Blue TGFβ cells stimulated with TGF-β, 22-23 h incubation, SEAP read at 630 nm
Method in brief: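 Cells (2.5×10^5 cells/ml suspension) in DMEM with 0.5% heat-inactivated FBS stimulated with TGF-β (6 ng/ml working solution) plus compound at eight 3-fold dilutions for 22-23 h at 37° C. Supernatant SEAP measured with QUANTI-Blue after 30-40 min, absorbance 630 nm; percent inhibition calculated.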

Cc1cc(Oc2ccnc(Nc3cccc(CCC(=O)O)c3)c2)c(-c2ccccn2)nc1C [Example 1, 3-(3-((4-((5,6-dimethyl-[2,2′-bipyridin]-3-yl)oxy)pyridin-2-yl)amino)phenyl)propanoic acid] and Cc1cc(Oc2ccnc(Nc3cccc(CCc4nn[nH]n4)c3)c2)c(-c2ccccn2)nc1C [Example 12, N-(3-(2-(2H-tetrazol-5-yl)ethyl)phenyl)-4-((5,6-dimethyl-[2,2′-bipyridin]-3-yl)oxy)pyridin-2-amine] are within 1.5-fold of each other in IC50: 180 nM for the first, 130 nM for the second.

Going from Cc1cc(Oc2ccnc(Nc3cccc(Cc4nnn[nH]4)c3)c2)c(-c2ccccn2)nc1C [Example 16, N-(3-((1H-tetrazol-5-yl)methyl)phenyl)-4-((5,6-dimethyl-[2,2′-bipyridin]-3-yl)oxy)pyridin-2-amine] to Cc1cc(Oc2ccnc(Nc3cccc(CC(C)(C)c4nn[nH]n4)c3)c2)c(-c2ccccn2)nc1C [Example 176], the IC50 falls from 390 nM to 150 nM (2.6-fold).

First: Cc1ccc(Oc2ccnc(Nc3cccc(CCc4nn[nH]n4)c3)c2)c(C)n1 [Example 44, N-(3-(2-(2H-tetrazol-5-yl)ethyl)phenyl)-4-((2,6-dimethylpyridin-3-yl)oxy)pyridin-2-amine]
Second: Cc1cc(Oc2ccnc(Nc3cccc(CCc4nn[nH]n4)c3)c2)c(C)nc1C [Example 188]
The IC50 of the first is 1.6-fold higher: 120 nM for the first, 73 nM for the second. The second is the more potent here.

Compared with Cc1ccc(Oc2ccnc(Nc3cccc(CCc4nn[nH]n4)c3)c2)c(-c2ccccc2)n1 [Example 52, N-(3-(2-(2H-tetrazol-5-yl)ethyl)phenyl)-4-((6-methyl-2-phenylpyridin-3-yl)oxy)pyridin-2-amine], Cc1ccc(Oc2ccnc(Nc3cccc(CC(C)(C)c4nn[nH]n4)c3)c2)c(-c2ccccc2)n1 [Example 192] is 1.8-fold higher in IC50: 37 nM for the first, 65 nM for the second. The first is the more potent here.

Cc1ccc(Oc2ccnc(Nc3cccc(C(C)(C)C(=O)O)c3)c2)c(-c2ccccc2)n1 [Example 70, 2-methyl-2-(3-((4-((6-methyl-2-phenylpyridin-3-yl)oxy)pyridin-2-yl)amino)phenyl)propanoic acid] and Cc1cc(Nc2cc(Oc3cn(C4CC4)nc3-c3ccccc3)ccn2)cc(C(C)(C)C(=O)O)c1 [Example 169] are the same in IC50: 7 nM for the first, 7 nM for the second.

CC(C)(C(=O)O)c1cccc(Nc2cc(Oc3cn(C4CC4)nc3C3CCOCC3)ccn2)c1 [Example 74] and CC(C)(Cc1cccc(Nc2cc(Oc3cn(C4CC4)nc3C3CCOCC3)ccn2)c1)C(=O)O [Example 160] are within 1.5-fold of each other in IC50: 230 nM for the first, 210 nM for the second.

Compared with Cc1cc(CC(C)(C)C(=O)O)cc(Nc2cc(Oc3cn(C4CC4)nc3C3CCOCC3)ccn2)c1 [Example 162], Cc1cc(CC(=O)O)cc(Nc2cc(Oc3cn(C4CC4)nc3C3CCOCC3)ccn2)c1 [Example 164] is 9.2-fold higher in IC50: 120 nM for the first, 1110 nM for the second.

First: O=C(O)Cc1cccc(Nc2cc(Oc3cn(C4CC4)nc3C3CCOCC3)ccn2)c1 [Example 163]
Second: c1cc(Cc2nn[nH]n2)cc(Nc2cc(Oc3cn(C4CC4)nc3C3CCOCC3)ccn2)c1 [Example 193]
The IC50 of the first is lower: 3600 nM for the first, over 10000 nM for the second. The first is the more potent here.

First: Cc1cc(Nc2cc(Oc3cn(C(C)C)nc3C3CCOCC3)ccn2)cc(C(C)(C)C(=O)O)c1 [Example 167]
Second: Cc1cc(Nc2cc(Oc3cn(C4CC4)nc3C3CCOCC3)ccn2)cc(C(C)(C)c2nn[nH]n2)c1 [Example 196]
The IC50 of the first is 2.3-fold higher: 620 nM for the first, 270 nM for the second. The second is the more potent here.

Compared with CC(C)(Cc1cccc(Nc2cc(Oc3cn(C4CC4)nc3-c3ccccc3)ccn2)c1)C(=O)O [Example 168], Cc1cc(CC(C)(C)C(=O)O)cc(Nc2cc(Oc3cn(C4CC4)nc3-c3ccccc3)ccn2)c1 [Example 170] is 15-fold lower in IC50: 210 nM for the first, 14 nM for the second. The second is the more potent here.

Going from O=C(O)CCc1cccc(Nc2cc(Oc3cn(C4CC4)nc3-c3ccccc3)ccn2)c1 [Example 171] to O=C(O)CCc1cccc(Nc2cc(Oc3cn(C4CCC4)nc3-c3ccccc3)ccn2)c1 [Example 173], the IC50 rises from 16 nM to 26 nM (1.6-fold). The first is the more potent here.

Cc1cc(Nc2cc(Oc3cn(C4CCC4)nc3-c3ccccc3)ccn2)cc(C(C)(C)C(=O)O)c1 [Example 172] and Cc1cc(Cc2nn[nH]n2)cc(Nc2cc(Oc3cn(C4CCC4)nc3-c3ccccc3)ccn2)c1 [Example 202] are the same in IC50: 120 nM for the first, 120 nM for the second.

Compared with CCc1nc(C)c(Oc2ccnc(Nc3cccc(CC4(C(=O)O)COC4)c3)c2)cc1C [Example 174, 3-(3-((4-((6-ethyl-2,5-dimethylpyridin-3-yl)oxy)pyridin-2-yl)amino)benzyl)oxetane-3-carboxylic acid], CCc1nc(C)c(Oc2ccnc(Nc3cc(C)cc(CCc4nn[nH]n4)c3)c2)cc1C [Example 190] is 9.5-fold lower in IC50: 57 nM for the first, 6 nM for the second. The second is the more potent here.

Compared with COc1ccc(Nc2cc(Oc3cc(C)c(C)nc3-c3ccccn3)ccn2)cc1CCc1nn[nH]n1 [Example 177], COc1ccc(Nc2cc(Oc3ccc(C)nc3-c3ccccn3)ccn2)cc1CCc1nn[nH]n1 [Example 184] is 2.2-fold higher in IC50: 150 nM for the first, 330 nM for the second.

COc1cc(CCc2nn[nH]n2)cc(Nc2cc(Oc3cc(C)c(C)nc3-c3ccccn3)ccn2)c1 [Example 178] and Cc1cc(Oc2ccnc(Nc3cc(F)cc(CCc4nn[nH]n4)c3)c2)c(-c2ccccn2)nc1C [Example 179] are within 1.5-fold of each other in IC50: 210 nM for the first, 170 nM for the second.

Compared with Cc1cc(Oc2ccnc(Nc3cc(Cl)cc(CCc4nn[nH]n4)c3)c2)c(-c2ccccn2)nc1C [Example 180], CCc1cc(Oc2ccnc(Nc3cccc(CCc4nn[nH]n4)c3)c2)c(-c2ccccn2)nc1C [Example 181] is 2.7-fold higher in IC50: 79 nM for the first, 210 nM for the second.

First: Cc1nc(-c2ccccn2)c(Oc2ccnc(Nc3cccc(CCc4nn[nH]n4)c3)c2)cc1C1CC1 [Example 182]
Second: Cc1nc(-c2ccccn2)c(Oc2ccnc(Nc3cccc(CCc4nn[nH]n4)c3)c2)cc1C(C)C [Example 183]
The IC50 of the first is 2.7-fold higher: 640 nM for the first, 240 nM for the second.

CCc1nc(-c2ccccn2)c(Oc2ccnc(Nc3cccc(CCc4nn[nH]n4)c3)c2)cc1C [Example 185] and c1ccc(-c2nn(C3CC3)cc2Oc2ccnc(Nc3cccc(CCc4nn[nH]n4)c3)c2)cc1 [Example 197] are within 1.5-fold of each other in IC50: 39 nM for the first, 35 nM for the second.

Going from CCc1nc(C)c(Oc2ccnc(Nc3cc(C)cc(CCc4nn[nH]n4)c3)c2)cc1Cl [Example 186] to Cc1cc(CCc2nn[nH]n2)cc(Nc2cc(Oc3cc(Cl)c(C)nc3C)ccn2)c1 [Example 189], the IC50 falls from 51 nM to 24 nM (2.1-fold). The second is the more potent here.

Compared with CCc1ccc(Oc2ccnc(Nc3cc(C)cc(CCc4nn[nH]n4)c3)c2)c(C)n1 [Example 187], Cc1ccc(Oc2ccnc(Nc3cccc(CCc4nn[nH]n4)c3)c2)c(C2CCOCC2)n1 [Example 191] is 140-fold higher in IC50: 27 nM for the first, 3690 nM for the second. The first is the more potent here.

First: Cc1cc(Cc2nn[nH]n2)cc(Nc2cc(Oc3cn(C4CC4)nc3C3CCOCC3)ccn2)c1 [Example 194]
Second: CC(C)(c1cccc(Nc2cc(Oc3cn(C4CC4)nc3C3CCOCC3)ccn2)c1)c1nn[nH]n1 [Example 195]
The IC50 of the first is 1.9-fold higher: 4140 nM for the first, 2230 nM for the second. The second is the more potent here.

c1ccc(-c2nn(C3CC3)cc2Oc2ccnc(Nc3cccc(Cc4nn[nH]n4)c3)c2)cc1 [Example 198] and c1ccc(-c2nn(C3CCC3)cc2Oc2ccnc(Nc3cccc(Cc4nn[nH]n4)c3)c2)cc1 [Example 201] are within 1.5-fold of each other in IC50: 110 nM for the first, 89 nM for the second.

Cc1cc(Cc2nn[nH]n2)cc(Nc2cc(Oc3cn(C4CC4)nc3-c3ccccc3)ccn2)c1 [Example 199] and c1ccc(-c2nn(C3CCC3)cc2Oc2ccnc(Nc3cccc(CCc4nn[nH]n4)c3)c2)cc1 [Example 200] are within 1.5-fold of each other in IC50: 60 nM for the first, 86 nM for the second.

Test system: not listed separately
Assay: Tissue exposure (liver and heart) in Balb/c mouse after PO dosing, general PK protocol
Type: in vivo
Conditions: PO (intragastric) 10 mg/Kg, liver and heart tissue 0.5-24 h, LC-MS/MS
Experimental: Comparing AUCliver/AUCheart ratio of selected Examples with clinic compounds Galunisertib and LY3200882. Tissue exposure was measured in Balb/c mouse with PO dosing at 10 mpk. […] See Stauber, et al., J. Clin. Pract., 2014, 4(3), 196.
The Balb/c mice were fasted overnight with free access to drinking water prior to treatment. Compounds were formulated in 0.5% CMC/0.5% Tween 80 with or without 1 eq. of NaOH, and administrated intragastrically at 10 mg/Kg. The liver and heart tissues of mice were collected at time points 0.5, 1, 3, 5, 7, 24 h (2 mice per time point) post dose by first sacrificing the animal by C02 inhalation. After flushing with ice saline and removal of excess water on its surface, the liver and heart tissues were weighed and homogenized in 1:5 volumes (w/v) of water with 20% methanol. Tissue samples were kept at −40˜−20° C. prior to analysis. Concentrations of compounds in the liver and hearts were determined using an established liquid chromatography-tandem mass spectrometry (LC-MS/MS) method. Tissue concentration-time data were processed by linear regression analysis. All pharmacokinetic parameters were calculated using non-compartment model of Pharsight Phoenix 8.0.

First: Cc1cc(Oc2ccnc(Nc3cccc(CCC(=O)O)c3)c2)c(-c2ccccn2)nc1C [Example 1, 3-(3-((4-((5,6-dimethyl-[2,2′-bipyridin]-3-yl)oxy)pyridin-2-yl)amino)phenyl)propanoic acid]
Second: Cc1cc(Oc2ccnc(Nc3cccc(CCc4nn[nH]n4)c3)c2)c(-c2ccccn2)nc1C [Example 12, N-(3-(2-(2H-tetrazol-5-yl)ethyl)phenyl)-4-((5,6-dimethyl-[2,2′-bipyridin]-3-yl)oxy)pyridin-2-amine]
The AUCliver/AUCheart of the first is lower: 13.2 for the first, 60.9 for the second.

Going from Cc1cc(Oc2ccnc(Nc3cccc(Cc4nnn[nH]4)c3)c2)c(-c2ccccn2)nc1C [Example 16, N-(3-((1H-tetrazol-5-yl)methyl)phenyl)-4-((5,6-dimethyl-[2,2′-bipyridin]-3-yl)oxy)pyridin-2-amine] to Cc1ccc(Oc2ccnc(Nc3cccc(CCc4nn[nH]n4)c3)c2)c(C)n1 [Example 44, N-(3-(2-(2H-tetrazol-5-yl)ethyl)phenyl)-4-((2,6-dimethylpyridin-3-yl)oxy)pyridin-2-amine], the AUCliver/AUCheart falls from 142 to 29.9.

Compared with Cc1ccc(Oc2ccnc(Nc3cccc(CCc4nn[nH]n4)c3)c2)c(-c2ccccc2)n1 [Example 52, N-(3-(2-(2H-tetrazol-5-yl)ethyl)phenyl)-4-((6-methyl-2-phenylpyridin-3-yl)oxy)pyridin-2-amine], Cc1ccc(Oc2ccnc(Nc3cccc(C(C)(C)C(=O)O)c3)c2)c(-c2ccccc2)n1 [Example 70, 2-methyl-2-(3-((4-((6-methyl-2-phenylpyridin-3-yl)oxy)pyridin-2-yl)amino)phenyl)propanoic acid] is lower in AUCliver/AUCheart: 70.6 for the first, 67.7 for the second.

Work on CC(C)(C(=O)O)c1cccc(Nc2cc(Oc3cn(C4CC4)nc3C3CCOCC3)ccn2)c1 [Example 74] yielded an AUCliver/AUCheart of 266.
